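Test compounds were applied to cells in 96-well plates for 48 hours at 5 doses. Definition used: TGI = concentration required for complete inhibition of growth.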
What follows are compounds tested on HT29 colon (assay: growth of human tumour cells (NCI), 48 h).

SMILES	TGI
CCOC1NC(=O)c2ccccc21 (stereo not drawn)	> 100 µM
CCN(C(=O)N[C@H](C(=O)N[C@@H](C)C(=O)OC)C(C)C)c1ccccc1	> 100 µM
Cc1cn(C2CC(OC(c3ccccc3)(c3ccccc3)c3ccccc3)C(COC(c3ccccc3)(c3ccccc3)c3ccccc3)O2)c(=O)[nH]c1=O (stereo not drawn)	> 100 µM
CCOC(=O)c1ccc(C(=O)/C(C(=O)OC(C)(C)C)=C2\CCCN2C)n1C	> 100 µM
Cc1cc2c(cc1Cl)SC(NNc1cnc3ccccc3n1)=NS2(=O)=O	> 100 µM
O=[N+]([O-])c1ccc2nc3c(nc2c1)-c1c2ccccc2cc2cccc-3c12	> 100 µM
O=CN(O)CC(=O)O	> 100 µM
COc1ccc(CN2C(=O)C(=O)N(C)C2=O)c2ccccc12	> 10 µM
OCC1OC(O[C@H]2CN3[C@H](O)[C@@H](O)[C@H](O)[C@H]3C2O)C(O)C(O)C1O (stereo partly drawn)	> 100 µM
CC1OC(n2cc(F)c(=O)[nH]c2=O)C(O[Si](C)(C)C(C)(C)C)C1O[Si](C)(C)C(C)(C)C (stereo not drawn)	23.3 µM
O=S1(=O)c2ccccc2NC(=S)N1c1ccccc1	> 100 µM
COC(=O)C(CCSC)NC(=O)CSc1nnc(COc2ccc(Cl)cc2)n1-c1ccccc1 (stereo not drawn)	34.7 µM
CCOC(=O)c1c(NC(=S)Nc2ccc(C)cc2)sc2c1CCN(C)C2	> 100 µM
Cc1ccc(-n2cc(-c3ccc(Cl)cc3)c3c2N=CN2NC(c4ccco4)=NC32)cc1 (stereo not drawn)	> 100 µM
COc1cc(/C=C/c2cc(=O)cc(/C=C/c3ccc(O)c(OC)c3)o2)ccc1O	> 100 µM
COn1cc(CO)c2ccccc21	> 100 µM
NNC(=O)c1cccc2c1Oc1ccccc1S2	> 100 µM
NC(=S)N=Nc1c(O)cc(Nc2ccc(Cl)cc2Cl)c2ccccc12	> 100 µM
Cc1ccc(C(=O)c2[nH]c(Nc3cc(C)ccn3)c(C(=S)Nc3ccccc3)c2N)cc1	> 100 µM
CC1=NC(C)(C)N(O)C1(C)C	> 100 µM
Cc1cc(C)nc(NS(=O)(=O)c2ccc(Nc3c4ccccc4nc4c(C(=O)NCCO)cccc34)cc2)n1	38.3 µM
COC1OC2COC(C)(C)OC2C2OC(C)(C)OC12 (stereo not drawn)	> 100 µM
O=C(NCCCNCCCCNCCCNC(=O)C(F)(F)F)C(F)(F)F	> 100 µM
COC(=O)c1sc2ncc3c(c2c1N)CC(C)CC3 (stereo not drawn)	> 100 µM
CCOC(=O)c1[nH]c2nc(SC)nc(NC)c2c1N	> 100 µM

What follows are compounds tested on SF-539 CNS (assay: growth of human tumour cells (NCI), 48 h).

SMILES	TGI
CC(O)(C(=O)N(O)c1ccc(Cl)cc1)c1ccc(Cl)cc1 (stereo not drawn)	> 100 µM
CC1(C)OC(CCO)CN1C(=O)OCc1ccccc1 (stereo not drawn)	> 100 µM
COc1cc2c(cc1OCCCOc1cc3c(cc1OC)C(=O)N1CCC[C@H]1CN3)N=C[C@@H]1CCCN1C2=O	0.411 µM
COc1ccc(N2C(=O)C3c4[nH]c5ccccc5c4C4C(C)CCCC4C3C2=O)cc1 (stereo not drawn)	> 82.8 µM
CCOC(=O)C1=C(C)NC(=O)N([N+](=O)[O-])C1c1ccccc1C(F)(F)F (stereo not drawn)	71.9 µM
O=c1c(Cc2ccccc2)c(-c2ccccc2)[nH]n1C1=NCCN1	> 100 µM
CCOC(=O)Cc1nn2c(=O)cc(C)nc2s1	> 100 µM
COP(=O)(CC(=O)C1OC(OCc2ccccc2)C(OCc2ccccc2)C(OCc2ccccc2)C1OCc1ccccc1)OC (stereo not drawn)	40.7 µM
OC(c1ccco1)C(F)(F)c1nc2ccccc2o1 (stereo not drawn)	> 100 µM
CN1c2ccccc2C(=O)NC12CCN(CC1COc3ccccc3O1)CC2 (stereo not drawn)	> 100 µM
CCOC1NC(=O)c2ccccc21 (stereo not drawn)	> 100 µM
CCN(C(=O)N[C@H](C(=O)N[C@@H](C)C(=O)OC)C(C)C)c1ccccc1	48.4 µM
Cc1cn(C2CC(OC(c3ccccc3)(c3ccccc3)c3ccccc3)C(COC(c3ccccc3)(c3ccccc3)c3ccccc3)O2)c(=O)[nH]c1=O (stereo not drawn)	> 100 µM
CCOC(=O)c1ccc(C(=O)/C(C(=O)OC(C)(C)C)=C2\CCCN2C)n1C	> 100 µM
Cc1cc2c(cc1Cl)SC(NNc1cnc3ccccc3n1)=NS2(=O)=O	87 µM
O=[N+]([O-])c1ccc2nc3c(nc2c1)-c1c2ccccc2cc2cccc-3c12	40.5 µM
O=CN(O)CC(=O)O	> 100 µM
COc1ccc(CN2C(=O)C(=O)N(C)C2=O)c2ccccc12	> 10 µM

SMILES	TGI
C(=N/Nc1ccc(-c2nc3ccccc3[nH]2)cc1)/c1c(-c2ccccc2)[nH]c2ccccc12	55.2 µM
OCC1OC(O[C@H]2CN3[C@H](O)[C@@H](O)[C@H](O)[C@H]3C2O)C(O)C(O)C1O (stereo partly drawn)	> 100 µM
CC1OC(n2cc(F)c(=O)[nH]c2=O)C(O[Si](C)(C)C(C)(C)C)C1O[Si](C)(C)C(C)(C)C (stereo not drawn)	28.7 µM
O=S1(=O)c2ccccc2NC(=S)N1c1ccccc1	> 100 µM
COC(=O)C(CCSC)NC(=O)CSc1nnc(COc2ccc(Cl)cc2)n1-c1ccccc1 (stereo not drawn)	33.7 µM
CCOC(=O)c1c(NC(=S)Nc2ccc(C)cc2)sc2c1CCN(C)C2	> 100 µM
Cc1ccc(-n2cc(-c3ccc(Cl)cc3)c3c2N=CN2NC(c4ccco4)=NC32)cc1 (stereo not drawn)	51.3 µM
COc1cc(/C=C/c2cc(=O)cc(/C=C/c3ccc(O)c(OC)c3)o2)ccc1O	> 100 µM
c1ccc(-c2ccc(N=NN3CCCC3)cc2)cc1	> 100 µM
COn1cc(CO)c2ccccc21	> 100 µM
NNC(=O)c1cccc2c1Oc1ccccc1S2	> 100 µM
NC(=S)N=Nc1c(O)cc(Nc2ccc(Cl)cc2Cl)c2ccccc12	53.4 µM
Cc1ccc(C(=O)c2[nH]c(Nc3cc(C)ccn3)c(C(=S)Nc3ccccc3)c2N)cc1	> 100 µM
CC1=NC(C)(C)N(O)C1(C)C	> 100 µM
O=C(NCCCNCCCCNCCCNC(=O)C(F)(F)F)C(F)(F)F	> 100 µM
COC(=O)c1sc2ncc3c(c2c1N)CC(C)CC3 (stereo not drawn)	> 100 µM
CC1=CCC[C@H]2[C@](C)(CC3=CC(=O)C4SCCSC4C3=O)[C@@H](C)CC[C@]12C (stereo partly drawn)	40.3 µM

What follows are compounds tested on K-562 leukemia (assay: growth of human tumour cells (NCI), 48 h).

SMILES	TGI
CC(O)(C(=O)N(O)c1ccc(Cl)cc1)c1ccc(Cl)cc1 (stereo not drawn)	43.1 µM
CCOP(=O)(OCC)c1cc(-c2ccccc2)ccc1N	> 100 µM
CC1(C)[C@@H]2C[C@H]1c1cnc(-c3ccccn3)cc1[C@H]2C(O)[C@@H]1c2cc(-c3ccccn3)ncc2[C@H]2C[C@@H]1C2(C)C (stereo partly drawn)	> 52 µM
CC1(C)OC(CCO)CN1C(=O)OCc1ccccc1 (stereo not drawn)	> 100 µM
COc1cc2c(cc1OCCCOc1cc3c(cc1OC)C(=O)N1CCC[C@H]1CN3)N=C[C@@H]1CCCN1C2=O	0.483 µM
COc1ccc(N2C(=O)C3c4[nH]c5ccccc5c4C4C(C)CCCC4C3C2=O)cc1 (stereo not drawn)	> 100 µM
CCOC(=O)C1=C(C)NC(=O)N([N+](=O)[O-])C1c1ccccc1C(F)(F)F (stereo not drawn)	> 100 µM
O=c1c(Cc2ccccc2)c(-c2ccccc2)[nH]n1C1=NCCN1	> 100 µM

Reference: PubChem BioAssay (NCI)
